Experimental data reported in US20260345619A1 (Principia Biopharma Inc., priority 2023, published 2026).

Assay: Loss of asthma control (LOAC) events, 12-week ICS/LABA withdrawal study
Type: in vivo, human
From the text: The general construct of this 12-week Loss of Asthma Control (LOAC) study consisted of a 4-week standardized ICS/LABA background therapy stabilization phase, a 4or 5-week background therapy withdrawal phase and a 3- or 4-week no background therapy phase, followed by a 4-week post IMP treatment safety follow-up period at the beginning of which, pre-screening asthma controller medications are restarted. Participants had access to short-acting β-agonist (SABA) reliever medication at all times during the protocol.
The primary endpoint was the proportion of patients with LOAC. The key secondary endpoint for the study was change in pre-bronchodilator FEV1 from baseline at EOT.
The primary endpoint was proportion of participants with LOAC during the 12-week treatment period.
Note that if the number of participants in some regions was too low, these regions may have been pooled with other regions. This strategy also applied to all the rest of the analyses where region was one of the covariates.
To assess the consistency in treatment effects across different subgroup levels, subgroup analyses were to be performed for the primary efficacy endpoint with respect to age group, gender, region, and other factors.
Secondary endpoints included pre-bronchodilator FEV1 change from baseline at EOT, ACQ-5 score change from baseline, and AQLQ score change from baseline. Other secondary and exploratory endpoints are described in Table 2.

[1] = 400 mg BID cohort, Latin America, n = 25
[2] = 400 mg BID cohort, N = 32, mITT
[3] = 400 mg BID cohort, age <45 years, n = 12
[4] = 400 mg BID cohort, age ≥45 years, n = 20
[5] = 400 mg BID cohort, baseline BMI <25 kg/m^2, n = 8
[6] = 400 mg BID cohort, baseline BMI ≥25-<30 kg/m^2, n = 16
[7] = 400 mg BID cohort, baseline BMI ≥30 kg/m^2, n = 8
[8] = 400 mg BID cohort, baseline weight ≥60-<90 kg, n = 23
[9] = 400 mg BID cohort, female, n = 18
[10] = 400 mg BID cohort, male, n = 14
[11] = 400 mg BID, N=32, 12 weeks, mITT
[12] = 400 mg BID, 1 exacerbation within 2 years
[13] = 400 mg BID, 2 exacerbations within 2 years
[14] = 400 mg BID, >2 exacerbations within 2 years
[15] = 400 mg BID, FEV1 reversibility <12 %
[16] = 400 mg BID, FEV1 reversibility ≥12 %
[17] = 400 mg BID, age at onset <12 years
[18] = 400 mg BID, age at onset <18 years
[19] = 400 mg BID, age at onset ≥12-<18 years
[20] = 400 mg BID, age at onset ≥18-<40 years

## CC(C)(C=C(C#N)C(=O)N1CCC[C@@H](n2nc(-c3ccc(Oc4ccccc4)cc3F)c3c(N)ncnc32)C1)N1CCN(C2COC2)CC1 (mixture of isomers) [rilzabrutinib, (R)-2-[3-[4-amino-3-(2-fluoro-4-phenoxy-phenyl)pyrazolo[3,4-d]pyrimidin-1-yl]piperidine-1-carbonyl]-4-methyl-4-[4-(oxetan-3-yl)piperazin-1-yl]pent-2-enenitrile]
400 mg BID cohort, APAC, n = 2
  LOAC incidence, number of participants: 2
  LOAC incidence, percentage: (100)
400 mg BID cohort, Eastern Europe, n = 3
  LOAC incidence, number of participants: 1
400 mg BID cohort, Eastern Europe, 95% CI (0.023, 11.088)
  LOAC OR vs. placebo: 0.500
400 mg BID cohort, Eastern Europe, 95% CI (−0.891, 0.558)
  LOAC RD vs. placebo: −0.167
[1]
  LOAC incidence, number of participants: 9
  LOAC incidence, percentage: (36.0)
400 mg BID cohort, Latin America, 95% CI (0.230, 2.230)
  LOAC OR vs. placebo: 0.716
400 mg BID cohort, Latin America, 95% CI (−0.351, 0.191)
  LOAC RD vs. placebo: −0.080
[2]
  Intervention discontinuation due to lack of efficacy or an AE related to asthma worsening, number: 0
  Number of participants requiring hospitalization or emergency room visit: 0
  Number of participants with LOAC: No: 20
  Number of participants with LOAC: Yes: 12
  Number of participants with increase in ICS ≥4 times the last prescribed ICS dose (or ≥50% of the prescribed ICS dose at baseline if background therapy withdrawal completed): 1
  Number of participants with ≥6 additional reliever puffs of salbutamol/albuterol or levosalbutamol/levalbuterol in a 24 hour period (compared with baseline) on 2 consecutive days: 2
  Number of participants with ≥30% reduction from baseline in AM PEF on 2 consecutive days: 6
  Participants with LOAC not triggered by use of rescue medication, number: 6
  Participants with LOAC not triggered by use of rescue medication, percentage: (18.8)
  Participants with LOAC triggered by use of rescue medication, number: 6
  Participants with LOAC triggered by use of rescue medication, percentage: (18.8)
  Percentage of participants with LOAC: No: (62.5)
  Percentage of participants with LOAC: Yes: (37.5)
  Percentage of participants with increase in ICS ≥4 times the last prescribed ICS dose (or ≥50% of the prescribed ICS dose at baseline if background therapy withdrawal completed): (3.1)
  Percentage of participants with ≥6 additional reliever puffs of salbutamol/albuterol or levosalbutamol/levalbuterol in a 24 hour period (compared with baseline) on 2 consecutive days: (6.3)
  Percentage of participants with ≥30% reduction from baseline in AM PEF on 2 consecutive days: (18.8)
400 mg BID cohort, Western Countries, n = 2
  LOAC incidence, number of participants: 0
[3]
  LOAC incidence, number of participants: 6
  LOAC incidence, percentage: (50.0)
400 mg BID cohort, age <45 years, 95% CI (0.342, 18.129)
  LOAC OR vs. placebo: 2.489
400 mg BID cohort, age <45 years, 95% CI (−0.266, 0.634)
  LOAC RD vs. placebo: 0.184
[4]
  LOAC incidence, number of participants: 6
  LOAC incidence, percentage: (30.0)
400 mg BID cohort, age ≥45 years, 95% CI (0.069, 1.023)
  LOAC OR vs. placebo: 0.266
400 mg BID cohort, age ≥45 years, 95% CI (−0.583, −0.007)
  LOAC RD vs. placebo: −0.295
[5]
  LOAC incidence, number of participants: 3
  LOAC incidence, percentage: (37.5)
400 mg BID cohort, baseline BMI <25 kg/m^2, 95% CI (0.033, 2.763)
  LOAC OR vs. placebo: 0.300
400 mg BID cohort, baseline BMI <25 kg/m^2, 95% CI (−0.796, 0.213)
  LOAC RD vs. placebo: −0.292
[6]
  LOAC incidence, number of participants: 6
  LOAC incidence, percentage: (37.5)
400 mg BID cohort, baseline BMI ≥25-<30 kg/m^2, 95% CI (0.168, 2.709)
  LOAC OR vs. placebo: 0.675
400 mg BID cohort, baseline BMI ≥25-<30 kg/m^2, 95% CI (−0.431, 0.240)
  LOAC RD vs. placebo: −0.096
[7]
  LOAC incidence, number of participants: 3
  LOAC incidence, percentage: (37.5)
400 mg BID cohort, baseline BMI ≥30 kg/m^2, 95% CI (0.107, 5.238)
  LOAC OR vs. placebo: 0.750
400 mg BID cohort, baseline BMI ≥30 kg/m^2, 95% CI (−0.536, 0.397)
  LOAC RD vs. placebo: −0.069
400 mg BID cohort, baseline weight <60 kg, n = 3
  LOAC incidence, number of participants: 0
[8]
  LOAC incidence, number of participants: 10
  LOAC incidence, percentage: (43.5)
400 mg BID cohort, baseline weight ≥60-<90 kg, 95% CI (0.366, 3.640)
  LOAC OR vs. placebo: 1.154
400 mg BID cohort, baseline weight ≥60-<90 kg, 95% CI (−0.244, 0.314)
  LOAC RD vs. placebo: 0.035
400 mg BID cohort, baseline weight ≥90 kg, n = 6
  LOAC incidence, number of participants: 2
400 mg BID cohort, baseline weight ≥90 kg, 95% CI (0.013, 4.729)
  LOAC OR vs. placebo: 0.250
400 mg BID cohort, baseline weight ≥90 kg, 95% CI (−0.987, 0.320)
  LOAC RD vs. placebo: −0.333
[9]
  LOAC incidence, number of participants: 7
  LOAC incidence, percentage: (38.9)
400 mg BID cohort, female, 95% CI (0.076, 1.263)
  LOAC OR vs. placebo: 0.311
400 mg BID cohort, female, 95% CI (−0.560, 0.045)
  LOAC RD vs. placebo: −0.258
[10]
  LOAC incidence, number of participants: 5
  LOAC incidence, percentage: (35.7)
400 mg BID cohort, male, 95% CI (0.173, 24.590)
  LOAC OR vs. placebo: 2.062
400 mg BID cohort, male, 95% CI (−0.420, 0.931)
  LOAC RD vs. placebo: 0.256
[11]
  participants without LOAC, number: 20
  participants without LOAC, percent: (62.5)
400 mg BID, N=32, 12 weeks, mITT, placebo 16
  participants with LOAC, number: 12
400 mg BID, mITT
  RRR vs. placebo (%), LOAC: 24.4%
400 mg BID, mITT, 95% CI 0.433, 1.319
  RR vs. placebo, LOAC: 0.756
400 mg BID, mITT, 95% CI −0.361, 0.115
  RD (risk difference) vs. placebo, LOAC: −0.123
[12]
  OR vs. placebo: 1.218
  RD vs. Placebo: 0.059
[13]
  LOAC, number: 4
  OR vs. placebo: 0.471
  RD vs. Placebo: −0.199
[14]
  LOAC, number: 3
  OR vs. placebo: 0.508
[15]
  OR vs. placebo: 0.611
  RD vs. Placebo: −0.119
[16]
  LOAC, number: 6
  OR vs. placebo: 0.533
  RD vs. Placebo: −0.156
[17]
  LOAC, number: 4
  OR vs. placebo: 2.000
  RD vs. Placebo: 0.159
[18]
  OR vs. placebo: 1.402
  RD vs. Placebo: 0.126
[19]
  LOAC, number: 1
  OR vs. placebo: 0.250
  RD vs. Placebo: −0.300
[20]
  LOAC, number: 4
  OR vs. placebo: 0.267
